Target: T1, APOL1 (Homo sapiens, UniProt O14791)
T1 sequence (O14791 1-398 S342G/I384M): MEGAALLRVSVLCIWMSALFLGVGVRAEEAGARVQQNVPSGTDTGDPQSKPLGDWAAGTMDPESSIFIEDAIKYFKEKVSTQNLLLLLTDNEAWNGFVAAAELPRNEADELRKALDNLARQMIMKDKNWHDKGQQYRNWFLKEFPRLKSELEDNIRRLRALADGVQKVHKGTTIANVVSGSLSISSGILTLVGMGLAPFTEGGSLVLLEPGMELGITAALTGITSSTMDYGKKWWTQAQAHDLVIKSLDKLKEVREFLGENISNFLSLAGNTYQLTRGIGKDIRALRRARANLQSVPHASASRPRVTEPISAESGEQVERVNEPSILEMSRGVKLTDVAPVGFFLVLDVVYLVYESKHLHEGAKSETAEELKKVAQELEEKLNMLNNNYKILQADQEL
Assay: Multi-Tox Assay (MultiTox-Fluor Multiplex Cytotoxicity Assay in tet-inducible APOL1 T-REx-HEK293 cells; Table 46 does not say which APOL1 variant G0/G1/G2)
Format: cell-based
Conditions: APOL1 variant not given; for IC50: IP50 = IC50 for cell proliferation

| SMILES | Multi-Tox Assay Max Activity (%) | IC50 [nM] |
| --- | --- | --- |
| C[C@H]1C[C@@]2(C[C@@H](c3cn(Cc4nc5ncccc5[nH]4)nn3)N1)OCC(F)(F)c1cc(Cl)sc12 [Compound 346] | 99.0 | 50 to 500 |
| C[C@H]1C[C@@]2(C[C@@H](c3cn(CC4(F)CCOCC4)nn3)N1)OC[C@@H](O)c1cc(Cl)sc12 [Compound 289] |  | > 500 |
| Cc1cc(C)nc(CCn2cc([C@@H]3C[C@]4(C[C@H](C)N3)OC[C@@H](O)c3cc(Cl)sc34)nn2)c1 [Compound 235] | 100.0 | < 50 |
| COCC(O)Cn1cc([C@@H]2C[C@]3(C[C@H](C)N2)OCC(F)(F)c2cc(Cl)sc23)nn1 (some centres unmarked) [Compound 342] | 98.0 | 50 to 500 |
| C[C@H]1C[C@@]2(C[C@@H](c3cn(CC4CCOCC4)nn3)N1)OCC(F)(F)c1cc(Cl)sc12 [Compound 309] | 97.0 | 50 to 500 |
| CC(C)C(=O)NCCn1cc([C@@H]2C[C@]3(C[C@H](C)N2)OCC(F)(F)c2cc(Cl)sc23)nn1 [Compound 345] | 99.0 | < 50 |
| COCCn1cc([C@@H]2C[C@]3(C[C@H](C)N2)OC[C@@H](O)c2cc(Cl)sc23)nn1 [Compound 282] | 99.0 | < 50 |
| C[C@H]1C[C@@]2(C[C@@H](c3cn(Cc4cccc5c4OCCO5)nn3)N1)OC[C@@H](O)c1cc(Cl)sc12 [Compound 268] | 99.0 | 50 to 500 |
| C[C@H]1C[C@@]2(C[C@@H](c3cn(Cc4ccc(O)nc4)nn3)N1)OCC(F)(F)c1cc(Cl)sc12 [Compound 316] | 95.0 | 50 to 500 |
| C[C@H]1C[C@@]2(C[C@@H](c3cn(CCO)nn3)N1)OC[C@@H](O)c1cc(Cl)sc12 [Compound 244] | 100.0 | 50 to 500 |
| Cc1cccc(OCC(O)Cn2cc([C@@H]3C[C@]4(C[C@H](C)N3)OCC(F)(F)c3cc(Cl)sc34)nn2)c1 (some centres unmarked) [Compound 303] | 99.0 | 50 to 500 |
| COC(=O)Cn1cc([C@@H]2C[C@]3(C[C@H](C)N2)OC[C@@H](O)c2cc(Cl)sc23)nn1 [Compound 263] |  | > 500 |
| C#C[C@@H]1C[C@]2(C[C@H](C)N1)OC[C@@H](O)c1cc(Cl)sc12 [Compound 222, (2′S,4S,6′S,7S)-2-chloro-2′-ethynyl-6′-methyl-spiro[4,5-dihydrothieno[2,3-c]pyran-7,4′-piperidine]-4-ol] |  | 50 to 500 |
| C[C@H]1C[C@@]2(C[C@@H](c3cn(Cc4ccc(C#N)nc4)nn3)N1)OC[C@@H](O)c1cc(Cl)sc12 [Compound 236] | 100.0 | < 50 |
| C[C@H]1C[C@@]2(C[C@@H](c3cn(Cc4cccc5c4OCCO5)nn3)N1)OCC(F)(F)c1cc(Cl)sc12 [Compound 310] | 94.0 | 50 to 500 |
| C[C@H]1C[C@@]2(C[C@@H](c3cn(Cc4n[nH]c5ccccc45)nn3)N1)OC[C@@H](O)c1cc(Cl)sc12 [Compound 232] | 100.0 | < 50 |
| C[C@H]1C[C@@]2(C[C@@H](c3cn(Cc4ccc(S(C)(=O)=O)cc4)nn3)N1)OC[C@@H](O)c1cc(Cl)sc12 [Compound 238] |  | 50 to 500 |
| C[C@H]1C[C@@]2(C[C@@H](c3cn(CCCO)nn3)N1)OCC(F)(F)c1cc(Cl)sc12 [Compound 359] | 98.0 | < 50 |
| Cc1nccn1CCCn1cc([C@@H]2C[C@]3(C[C@H](C)N2)OCC(F)(F)c2cc(Cl)sc23)nn1 [Compound 341] | 98.0 | 50 to 500 |
| C[C@H]1C[C@@]2(C[C@@H](c3cn(Cc4cocn4)nn3)N1)OC[C@@H](O)c1cc(Cl)sc12 [Compound 291] | 100.0 | 50 to 500 |
| C[C@H]1C[C@@]2(C[C@@H](c3cn(CCC4CCCOC4)nn3)N1)OCC(F)(F)c1cc(Cl)sc12 (some centres unmarked) [Compound 314] | 99.0 | < 50 |

Source: US12421249B2, “Inhibitors of APOL1 and methods of using same” (Vertex Pharmaceuticals Incorporated, priority 2020, dated 2025)
